The nature of data set [1]: Particle size distribution (volume diameter D10/D50/D90, span). The settings on record: for Final PSD after ripening D10 / Final PSD after ripening D50 / Final PSD after ripening D90: after ripening at 40, 43 or 48 °C; for D10 (values across lots) / span (values across lots): range over the lots of the example. It is filed as physicochemical. How it is done:
Particle size is expressed in terms of volume diameter, which is used to provide a dimensional description of particles which are non-spherical. “Volume diameter” refers to the diameter of a sphere with equal volume of the non-spherical particle. Particle size can be measured according to methods well known in the art, including a laser diffraction technique that correlates light scattering to particle volume on which effective length or effective diameter is calculated.
Particle size distribution is expressed in terms of D50, D10, D90 and span. “Span” is a measure for particle size distribution. It is calculated according to the following equation: […]
“D50”, also known as the median diameter, corresponds to the value under which 50% of the particles has a lower volume diameter. “D90” corresponds to the value under which 90% of the particles has a lower volume diameter. “D10” corresponds to the value under which 10% of the particles has a lower volume diameter.

The nature of data set [2]: Ring shear test: flow function coefficient and cohesion (Jenike-Johanson RST-XS, ASTM D6773-16). It is filed as physicochemical. Conditions: neat particles; for average cohesion: four lots (FIG. 3); for average FFc (flow function coefficient): four lots, pre-load 3 kPa (FIG. 2). An excerpt: “Flow function”, “flow function coefficient”, or FFc is a parameter commonly used to rank the flowability of a particulate sample, which could be a sample of neat API particles or a blend containing API particles plus additives. • Powder flowability is ranked as follows: • FFc<1 not flowing • 1<FFc<2 very cohesive • 2<FFc<4 Cohesive • 4<FFc<10 easy flowing • FFc>10 free flowing The measurement of FFc and Cohesion outlined below follows the procedures described in ASTM D6773-16. […] To test FFc and Cohesion, a particulate sample is added to a commercially available ring shear testing device, such as a Jenike-Johanson RST-XS ring shear tester. Such testing is familiar to the person of ordinary skill in the art. In general, the powder is loaded into an annular trough and a consolidated powder bed is formed. A normal stress (σp) is applied to the consolidated powder bed and the pre-shear stress (ζp) is measured. The normal stress is applied as a vertical load through an annular lid. The shear cell rotates relative to the lid and the torque necessary for shearing is measured. Repeat measurements with a series of values of normal stress are applied. When the measured shear stress values (Y-axis) are plotted as function of applied normal stress values (X-axis), the linear relation between them is called the yield locus. The yield locus line can be used to determine a unique relationship between normal stress and shear stress; this is known as a Mohr circle. The yield locus line represents a tangential line of all Mohr circles. The outer larger radius circle corresponds to pre-shear conditions (σp, ζp) and defines the Major Principal Stress, MPS (σ1). The smaller radius circle defines the Unconfined Yield Stress, UYS (σc). Flow function coefficient or FFc is the ratio of Major Principle Stress (MPS) to the Unconfined Yield Strength (UYS): Cohesion is the propensity for particles within a sample to self-associate or “stick together”. The ring shear tester measures cohesion at the same time that it measure FFc. The intercept of yield locus line at zero normal stress (i.e., where the extrapolation of the yield locus line intercepts the Y axis) is known as powder cohesion, and is expressed in Pascal (Pa) units. Lower cohesion is associated with better powder flowability. Further, cohesion predicts how particulate samples will behave when stored, for example when stored in a silo. […] The flow function coefficient (FFc) was measured as described above to quantify the flow properties of neat diroximel fumarate particles of Example 1 (dry milled) and Example 2 (wet milled and ripened). […]

The mark [3] stands for this setting: dry milled API, representative commercial lot.
[4] abbreviates: dry milled API, (D90 − D10)/D50.
[5] abbreviates: final PSD after ripening, (D90 − D10)/D50.
Where [6] appears, read: final product, wet milled and ripened in IPAC/IPA, 43 °C.

Where a name gives a salt, the structure may show the parent alone.

As for `COC(=O)/C=C/C(=O)OCCN1C(=O)CCC1=O` [compound 3, diroximel fumarate], in data set [1], the “Final PSD after ripening D10” value was determined as 41.0 μm, the “Final PSD after ripening D50” value worked out at 111.9 μm and the “Final PSD after ripening D90” value was determined as 222.9 μm. Also, in data set [1] (before ripening), the “PSD after wet milling D10” value is 9.15 μm, the “PSD after wet milling D50” value amounted to 35.2 μm and the “PSD after wet milling D90” value stood at 116 μm. Besides, in data set [1] (setting [3]), the D10 is recorded as 18 μm, the D50 was 101 μm and the D90 amounted to 307 μm. In data set [1] (setting [4]), this molecule gave a Span of 2.9. Moreover, the Span in data set [1] (setting [5]) is on record as 1.6.

Regarding `COC(=O)/C=C/C(=O)OCCN1C(=O)CCC1=O` [compound 4, diroximel fumarate], in data set [1] (setting [3]), the D10 turned out to be 16 μm, the D50 turned out to be 95 μm and the D90 was 302 μm. This molecule also had a Span in data set [1] (setting [4]) of 3.0.

Regarding `COC(=O)/C=C/C(=O)OCCN1C(=O)CCC1=O` [compound 2, diroximel fumarate], in data set [1], the “Final PSD after ripening D10” value was determined as 40.7 μm, the “Final PSD after ripening D50” value came out at 96.1 μm and the “Final PSD after ripening D90” value stood at 204.5 μm. Further, in data set [1] (before ripening), the “PSD after wet milling D10” value came to 12.4 μm, the “PSD after wet milling D50” value is 66.3 μm and the “PSD after wet milling D90” value is recorded as 179 μm. In data set [1] (setting [3]), this molecule came in with a D10 of 17 μm, a D50 of 106 μm and a D90 of 347 μm. The molecule further displayed a Span in data set [1] (setting [4]) of 3.1. The molecule also yielded a Span in data set [1] (setting [5]) of 1.7.

As for `COC(=O)/C=C/C(=O)OCCN1C(=O)CCC1=O` [compound 1, diroximel fumarate], in data set [1], the “Final PSD after ripening D10” value is 37.2 μm, the “Final PSD after ripening D50” value is given as 89.3 μm and the “Final PSD after ripening D90” value is 162.5 μm. In addition, in data set [1] (before ripening), the “PSD after wet milling D10” value came out at 11.6 μm, the “PSD after wet milling D50” value was 53.0 μm and the “PSD after wet milling D90” value was determined as 155 μm. In addition, in data set [1] (setting [3]), the D10 was 17 μm, the D50 came out at 96 μm and the D90 came out at 347 μm. The Span in data set [1] (setting [4]) was found to be 3.4. Besides, the Span in data set [1] (setting [5]) was 1.4.

As to `COC(=O)/C=C/C(=O)OCCN1C(=O)CCC1=O` [Example 6, diroximel fumarate], in data set [1] (IPAC/IPA slurry, after 23 volume turnovers, before ripening), the “median particle size D50, in-process after wet milling” value was found to be 43 microns. In addition, in data set [1] (final product, wet milled and ripened in IPAC/IPA), the Span stood at 1.4. In data set [1] (setting [6]), this molecule registered a D10 of 40 μm, a D50 of 92 μm and a D90 of 173 μm.

Turning to `COC(=O)/C=C/C(=O)OCCN1C(=O)CCC1=O` [Example 1, diroximel fumarate], in data set [1], the “D10 (values across lots)” value was 16-18 μm and the “span (values across lots)” value is recorded as 2.9-3.4. In data set [2], the average cohesion is given as 270 Pa and the “average FFc (flow function coefficient)” value is on record as “less than 4”.

Turning to `COC(=O)/C=C/C(=O)OCCN1C(=O)CCC1=O` [Example 2, diroximel fumarate], in data set [1], the “D10 (values across lots)” value is 37.2-41.0 μm and the “span (values across lots)” value was 1.4-1.7. Moreover, in data set [2], the average cohesion is reported as 219 Pa and the “average FFc (flow function coefficient)” value is given as “about 4”.

Source of the values: patent US20240400506A1, “DIROXIMEL FUMARATE PARTICLES HAVING IMPROVED FLOW PROPERTIES AND METHODS OF MAKING SAME” (BIOGEN MA INC., priority 2021, published 2024).
